Literature values, collected in patent US11980624B2, “Methods for administering compositions comprising hydroxytyrosol and boswellic acid” (Nutramax Laboratories, Inc., priority 2016, dated 2024).

Conditions: single oral 2.5 mg/kg dose, human subjects

In the case of OCCc1ccc(O)c(O)c1 [hydroxytyrosol, 4-(2-Hydroxyethyl)-1,2-benzenediol], the peak plasma concentration is listed as 1.11 ± 0.20 µmol/L.
